How the values were obtained:
[1] = Fe-porphyrin catalyzed oxidation of DHTz; settings: DHTz 35 uM in PBS pH 7.4, air
Procedure: (§1) 4-Oxo-4-((6-(6-(pyridin-2-yl)-1,4-dihydro-1,2,4,5-tetrazin-3-yl)pyridin-3-yl)amino)butanoic acid (35 uM in PBS (pH 7.4), 2 mL) was placed in a 1 cm×1 cm cuvette with a strongly stirred magnetic stir bar in an atmosphere of air. A solution of Fe-TMPyP (50 uM in PBS (pH 7.4), 20 uL) was added to the cuvette. The reaction was monitored by a UV-Vis spectrometer at 280 nm and 325 nm.
as §1, with “Fe-TPPS” for “Fe-TMPyP”

[2] = Dihydrotetrazine oxidative stability (UV-vis); assay type: physicochemical
Description: A challenge to the development of catalytic methods for turning on the tetrazine ligation was the identification of a DHTz/Tz pair that would be stable in both oxidation states (FIG. 1, panel B). For most redox couples, either the DHTz is too readily oxidized in air (e.g., 1), or the Tz is too reactive toward water and other nucleophiles (e.g., 2). The inventors show here that the dipyridyl DHTz/Tz pair (3/4) has good stability in both states (FIG. 1, panel C). Dihydrotetrazines 3 are highly resistant toward background oxidation in organic solvents, and a number of derivatives have been synthesized and shown stable even to silica gel chromatography. […] Aqueous solutions of 3a were handled in glassware that had been first rinsed with 2.0 mM EDTA in PBS to remove adventitious metal impurities. After standing in the dark at 25° C. in PBS buffer, a solution of 3a was monitored by UV-vis and shown to retain 99 and 96% of the DHTz oxidation state over 30 min and 2.5 hours respectively. […] In PBS containing 10% mouse serum, 90% of 3a was retained in the DHTz oxidation state after 1 h. Analogs of tetrazines 4 have been described previously and used broadly for applications in nuclear medicine and cell imaging. […] The stability of a radiolabeled derivative of tetrazine 4b has been studied by Robillard at 37° C. in PBS, serum and blood, with 97%, 87% and 59% retention of the tetrazine observed after 2 hours.
A solution (3 mL) containing 3a (35 μM) in PBS buffer was prepared in a cuvette from stock solutions. Oxidation was monitored by recording solution absorbance at 0, 30 and 150 minutes. The cuvette was stored in the dark between measurements. Comparison of HRP, cytochrome C and hemoglobin: Solutions (1 mL) of 3a (30 μM) in PBS buffer were prepared in a cuvette from stock solutions. To the solutions, either hemoglobin ([…]) or cytochrome C (9 μM) were added and while oxidation was monitored every 30 seconds by measuring absorbance at 325 nm.

[3] = molecular target: T1, horseradish peroxidase (HRP) (Armoracia rusticana, UniProt P00433); assay: Horseradish peroxidase (HRP) catalyzed oxidation of DHTz to tetrazine; assay type: biochemical; settings: HRP 15 nM; for Rate of HRP Oxidation of 3a: first 10 seconds
T1 sequence (P00433 31-338): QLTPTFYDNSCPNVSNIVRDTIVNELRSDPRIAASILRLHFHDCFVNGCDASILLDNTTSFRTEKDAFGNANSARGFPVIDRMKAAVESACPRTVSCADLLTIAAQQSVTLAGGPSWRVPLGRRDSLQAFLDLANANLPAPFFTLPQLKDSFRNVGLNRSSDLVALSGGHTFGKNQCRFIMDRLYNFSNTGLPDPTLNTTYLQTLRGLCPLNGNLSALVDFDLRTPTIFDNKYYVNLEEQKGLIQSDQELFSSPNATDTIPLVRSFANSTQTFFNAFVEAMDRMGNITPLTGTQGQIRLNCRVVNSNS
Procedure: Upon addition of horseradish peroxidase (15 nM) the UV-vis spectrum was monitored every 10 seconds. With 50% conversion after 100 seconds, complete conversion of 3a to 4a is observed after 600 seconds, as evidenced by the decrease in the absorption at 292 nm and increase at 325 nm with an isosbestic point at 303 nm. Similar spectral changes are observed when 3a is electrochemically oxidized to 4a in aqueous solution, or when the oxidation of 3a to 4a is photocatalyzed by methylene blue. […] Methylene blue was considered a particularly attractive sensitizer due to its clinical relevance, low molecular weight, low toxicity, high solubility, and an absorption spectrum (λmax 665 nm) that extends to the near IR. Further, methylene blue has previously been explored for applications in photodynamic therapy based on oxidation of indole-3-acetic acid. Rose bengal (λmax 550 nm), used in a range of biomedical applications, was also identified as an excellent sensitizer. […] Methylene blue (4 μM) also catalyzed the conversion of 3a to 4a in the presence of ambient light, with 47% conversion noted after 2 h. […] The mechanism of photooxidation more likely involves electron transfer and is the subject of ongoing study.
As a complement to these photocatalyzed reactions, the inventors observed that HRP can efficiently catalyze the oxidation of 3a in the dark at low enzyme concentration (15 nM) (FIG. 4). While HRP typically requires H2O2 as the terminal oxidant, the addition of HRP to a peroxide-free solution of 3a (30 μM) in PBS led to the rapid formation of 4a (FIG. 4, panel B). […] Neither cytochrome c nor hemoglobin were effective catalysts of DHTz oxidation, with only slow conversion of 3a to 4a even with heme concentrations that were nearly 3 orders of magnitude higher than that used with HRP.
Solutions (1 mL) containing 3a (30 μm) in PBS buffer were prepared in a cuvette from stock solutions. Oxidation of 3a to 4a was monitored by recording absorbance at 325 nm every 10 seconds while either hydrogen peroxide (2 mM), HRP (15 nM) or both were added (FIG. 4, panel B). For the superoxide dismutase experiment, HRP (15 nM) was added followed by SOD (770 nM) 40 seconds later (FIG. 4, panel C). For the kinetics experiments, solutions (1 mL) containing 3a in PBS buffer with EDTA (2 mM) were prepared in the following concentrations of 3a: 9, 17, 34, 50, 83, 150 and 200 μM. The oxidation rate was determined by observing the conversion of 3a to 4a in the first 10 seconds after mixing in HRP (15 nM) and subtracting the background oxidation prior to the addition of HRP.

[4] = DHTz stability in PBS containing 10% mouse serum; assay type: in vitro ADME; settings: 1 h
Description: A challenge to the development of catalytic methods for turning on the tetrazine ligation was the identification of a DHTz/Tz pair that would be stable in both oxidation states (FIG. 1, panel B). For most redox couples, either the DHTz is too readily oxidized in air (e.g., 1), or the Tz is too reactive toward water and other nucleophiles (e.g., 2). The inventors show here that the dipyridyl DHTz/Tz pair (3/4) has good stability in both states (FIG. 1, panel C). Dihydrotetrazines 3 are highly resistant toward background oxidation in organic solvents, and a number of derivatives have been synthesized and shown stable even to silica gel chromatography. […] Aqueous solutions of 3a were handled in glassware that had been first rinsed with 2.0 mM EDTA in PBS to remove adventitious metal impurities. After standing in the dark at 25° C. in PBS buffer, a solution of 3a was monitored by UV-vis and shown to retain 99 and 96% of the DHTz oxidation state over 30 min and 2.5 hours respectively. […] In PBS containing 10% mouse serum, 90% of 3a was retained in the DHTz oxidation state after 1 h. Analogs of tetrazines 4 have been described previously and used broadly for applications in nuclear medicine and cell imaging. […]

## O=C(O)CCC(=O)Nc1ccc(C2=NNC(c3ccccn3)=NN2)nc1 [3a, 4-oxo-4-((6-(6-(pyridin-2-yl)-1,4-dihydro-1,2,4,5-tetrazin-3-yl)pyridin-3-yl)amino)butanoic Acid]
[1]; Fe-TMPyP
  time to 50% completion of oxidation: ≤ 1 min
  time to 95% completion of oxidation: ≤ 5 min
[1]; Fe-TPPS
  time to 50% completion of oxidation: ≤ 5 min
[2]; 35 μM in MeOH, ambient light, 1 hour
  retained DHTz oxidation state: 99%
[2]; 35 μM in MeOH, ambient light, 2 hours
  retained DHTz oxidation state: 98%
[2]; PBS buffer, ambient light, 25° C., 1 hour
  retained DHTz oxidation state: 97%
[2]; PBS buffer, ambient light, 25° C., 2 hours
  retained DHTz oxidation state: 94%
[2]; PBS buffer, dark, 25° C., 30 min
  retained DHTz oxidation state: 99%
[2]; PBS buffer, dark, 25° C., 2.5 hours
  retained DHTz oxidation state: 96%
[3]
  time to complete conversion of 3a to 4a: 600 s
[3]; after 100 seconds
  conversion of 3a to 4a: 50%
[3]; [3a] 17 μM
  Rate of HRP Oxidation of 3a: 5.6e-08 M/s
[3]; [3a] 34 μM
  Rate of HRP Oxidation of 3a: 8.9e-08 M/s
[3]; [3a] 50 μM
  Rate of HRP Oxidation of 3a: 1.2e-07 M/s
[3]; [3a] 83 μM
  Rate of HRP Oxidation of 3a: 2.1e-07 M/s
[3]; [3a] 150 μM
  Rate of HRP Oxidation of 3a: 2.5e-07 M/s
[3]; [3a] 200 μM
  Rate of HRP Oxidation of 3a: 2.6e-07 M/s
[4]
  retained in the DHTz oxidation state: 90%

Source: patent US11485987B2, “Methods for inducing bioorthogonal reactivity” (University of Delaware, priority 2015, dated 2022)
